Measured values published in ChEMBL document CHEMBL1201862, “PubChem BioAssay data set” (2004).
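1) Cells in 96-well plates. 2) Compound, 48 h, 5 concentrations. 3) Linear interpolation between surrounding doses. 4) Unreached endpoint = highest concentration. Abbreviation: GI50, concentration required for 50% inhibition of growth.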 Activity calls are given as the source filed them. Cut-off read from the data, not from the text of the source: active = GI50 up to about 1.1 µM and inactive = higher.

How the values were obtained:
Test in all cases: NCI anticancer screen, dose series, 48 h
[1] = tested on: HCT-116
[2] = tested on: SK-MEL-2
[3] = tested on: HCC 2998
[4] = tested on: SNB-75
[5] = tested on: NCI-H460
[6] = tested on: SK-MEL-5
[7] = tested on: RPMI-8226
[8] = tested on: 786-0
[9] = tested on: EKVX
[10] = tested on: SF-295
[11] = tested on: SK-OV-3
[12] = tested on: TK-10
[13] = tested on: U-251
[14] = tested on: COLO 205
[15] = tested on: IGROV-1
[16] = tested on: HOP-92
[17] = tested on: DU-145
[18] = tested on: MDA-MB-435
[19] = tested on: MDA-MB-231

Measured: GI50

O=C(Cc1nc2sc3c(c2c(=O)[nH]1)CCCC3)Nc1ccccc1
inactive: [1] > 100 µM | [2] > 100 µM | [3] > 100 µM | [4] 25.1 µM | [5] > 100 µM | [6] > 100 µM | [7] > 100 µM | [8] 71.1 µM | [9] > 100 µM | [10] > 100 µM | [11] 43.5 µM | [12] > 100 µM | [13] > 100 µM | [14] > 100 µM | [15] > 100 µM | [16] > 100 µM

COC(=O)n1c(CBr)c(Br)c2ccccc21
inactive: [1] 39.4 µM | [2] 23.3 µM | [3] 32.6 µM | [4] 10.8 µM | [5] 24.3 µM | [6] 51.5 µM | [7] 21 µM | [8] 45 µM | [10] 23.7 µM | [12] 33.1 µM | [13] 27 µM | [14] > 100 µM | [15] 20.9 µM | [16] 20.1 µM

CC(=O)OC1(Sc2ccccc2)CC2[C@H]3COC(C)(C)O[C@H]3CC[C@@]2(C)CC1=O (stereo not given in full)
inactive: [1] 65.3 µM | [2] 81.8 µM | [4] 23.2 µM | [5] 64.1 µM | [6] 21.3 µM | [7] 21.1 µM | [8] 33.7 µM | [9] 57.7 µM | [10] 55.8 µM | [11] 44.2 µM | [12] > 100 µM | [13] > 10 µM | [14] 26.9 µM | [15] 21.3 µM | [16] 45.2 µM

Oc1cccc(-c2cccc(O)n2)n1
inactive: [1] > 100 µM | [3] > 100 µM | [4] > 100 µM | [5] > 100 µM | [6] > 100 µM | [7] > 100 µM | [8] > 100 µM | [9] > 100 µM | [10] > 100 µM | [11] > 100 µM | [12] > 100 µM | [13] > 100 µM | [14] > 100 µM | [15] > 100 µM | [16] 26.3 µM

O=C(c1ccc(Br)cc1)n1c2ccc(Br)cc2c2nc3ccccc3nc21
inactive: [1] > 100 µM | [2] > 100 µM | [17] > 100 µM | [3] > 100 µM | [4] 76.7 µM | [5] > 100 µM | [6] > 100 µM | [7] > 100 µM | [8] > 100 µM | [9] > 100 µM | [10] > 100 µM | [12] > 100 µM | [13] > 100 µM | [14] > 100 µM | [18] > 100 µM | [15] > 100 µM | [16] > 100 µM

O=c1c(Cl)c(Cl)cnn1CCc1ccncc1
inactive: [1] 16.6 µM | [2] 20.3 µM | [3] 14.5 µM | [4] 16.6 µM | [5] 20.1 µM | [6] 16.1 µM | [7] 36.6 µM | [8] 19.6 µM | [9] 19.6 µM | [10] 29.5 µM | [12] 47.5 µM | [15] 17.3 µM | [16] 20.4 µM

CCCCN(CC)C(=O)C1=C(C)NC(C)=C(C(=O)N(CC)CCCC)C1
inactive: [1] > 100 µM | [2] > 100 µM | [17] > 100 µM | [3] > 100 µM | [4] 77.1 µM | [5] > 100 µM | [6] > 100 µM | [8] > 100 µM | [9] > 100 µM | [10] > 100 µM | [11] > 100 µM | [12] > 100 µM | [13] > 100 µM | [14] > 100 µM | [18] 80 µM | [19] > 100 µM | [15] 97.7 µM | [16] > 100 µM

CC(C)(CN1CCCCC1)C(=O)/C=C/c1ccc(Cl)cc1
inactive: [1] 3.4 µM | [3] 13.2 µM | [4] 2.44 µM | [5] 2.69 µM | [6] 3.08 µM | [7] 2.94 µM | [8] 2.72 µM | [9] 3.3 µM | [10] 3.03 µM | [11] 11.2 µM | [12] 15.3 µM | [13] 3.51 µM | [14] 4.82 µM | [15] > 10 µM | [16] 1.6 µM

CCCCCCCCCCCCCCCCCC(=O)OCC(C[As](=O)(O)O)OC(=O)CCCCCCCCCCCCCCCCC (stereo not given)
inactive: [1] 60.1 µM | [2] 70.1 µM | [3] > 100 µM | [4] 29.4 µM | [5] > 100 µM | [6] > 100 µM | [7] 28.3 µM | [8] 27.2 µM | [9] > 100 µM | [10] 32.7 µM | [11] 18.2 µM | [12] 33.4 µM | [13] 26 µM | [15] 52.5 µM | [16] 11.4 µM

CC1O[C@@H]2CCCCC(=O)[C@]2(C)[C@H]1C (stereo not given in full)
inactive: [1] > 100 µM | [2] > 100 µM | [3] > 100 µM | [4] > 100 µM | [5] > 100 µM | [6] > 100 µM | [7] > 100 µM | [8] > 100 µM | [9] > 100 µM | [10] > 100 µM | [11] > 100 µM | [12] > 100 µM | [13] > 100 µM | [14] > 100 µM | [15] > 100 µM | [16] > 100 µM

CC12C3CC4C5CC(C(C53)[C@@H]1NCc1ccccc1)C42 (stereo not given in full)
inactive: [1] > 100 µM | [2] > 100 µM | [3] 15.5 µM | [4] > 100 µM | [5] > 100 µM | [6] 31.5 µM | [7] > 100 µM | [8] > 100 µM | [9] > 100 µM | [10] > 100 µM | [11] > 100 µM | [12] > 100 µM | [13] 97.5 µM | [14] 18.5 µM | [15] > 100 µM | [16] 55.7 µM

CN(C)CCC1(C2=CCCC2)CC/C(=C\c2ccc(Cl)cc2)C1=O (stereo not given)
inactive: [1] 8.77 µM | [2] 4.45 µM | [3] 7.82 µM | [4] 6.85 µM | [5] 10.9 µM | [6] 1.99 µM | [7] 5.73 µM | [8] 4.04 µM | [9] 7.16 µM | [10] 7.82 µM | [11] 6.93 µM | [12] 11.1 µM | [13] 8.87 µM | [14] 12.4 µM | [15] 7.14 µM | [16] 3.89 µM

COc1cc2cnc3c4cc(OC)c(OC(C)C)cc4ccc3c2cc1OC
inactive: [1] > 100 µM | [2] > 100 µM | [3] > 100 µM | [4] > 100 µM | [5] > 100 µM | [6] > 100 µM | [7] > 100 µM | [8] > 100 µM | [9] > 100 µM | [10] > 100 µM | [11] > 100 µM | [12] > 100 µM | [13] > 100 µM | [14] > 100 µM | [15] > 100 µM | [16] > 100 µM

C=CCCCn1ccc2ccccc21
inactive: [1] > 100 µM | [2] > 100 µM | [3] > 100 µM | [4] > 100 µM | [5] > 100 µM | [6] > 100 µM | [7] > 100 µM | [8] > 100 µM | [9] > 100 µM | [10] > 100 µM | [11] > 100 µM | [12] > 100 µM | [13] > 100 µM | [14] > 100 µM | [15] > 100 µM | [16] 7.45 µM

Cc1cc(C)c2c(c1)Nc1ccccc1P2c1ccccc1 (stereo not given)
inactive: [3] 26.6 µM | [4] 23.7 µM | [5] 22.3 µM | [7] 3.89 µM | [8] 36.5 µM | [9] 23.5 µM | [10] 20 µM | [11] > 100 µM | [12] 40.2 µM | [13] 31.7 µM | [14] > 100 µM | [15] 27.8 µM | [16] 30.9 µM

Cn1nc(-c2cccc(-c3nn(C)/c(=N\CCO)s3)n2)s/c1=N/CCO
inactive: [1] > 100 µM | [4] > 100 µM | [5] > 100 µM | [6] > 100 µM | [7] 63 µM | [8] > 100 µM | [9] > 100 µM | [10] > 100 µM | [13] > 100 µM | [14] > 100 µM | [15] > 100 µM | [16] > 100 µM

NCCCCC(=O)c1cccnc1
inactive: [1] > 100 µM | [2] > 100 µM | [5] > 100 µM | [6] > 100 µM | [7] > 100 µM | [8] > 100 µM | [9] > 100 µM | [10] > 100 µM | [11] > 100 µM | [12] > 100 µM | [13] > 100 µM | [15] > 100 µM | [16] > 100 µM

C/C(=N/NS(=O)(=O)c1ccccc1)c1cccc[n+]1[O-]
inactive: [1] > 100 µM | [3] > 100 µM | [4] > 100 µM | [5] > 100 µM | [6] > 100 µM | [7] > 100 µM | [8] > 100 µM | [9] > 100 µM | [10] > 100 µM | [11] > 100 µM | [12] > 100 µM | [13] > 100 µM | [15] > 100 µM | [16] > 100 µM
